Results reported in patent publication US20210155814A1, “ACTIVE-ENERGY-RAY-CURABLE AQUEOUS COMPOSITION, ACTIVE-ENERGY-RAY-CURABLE AQUEOUS INK, STORED CONTAINER, IMAGE FORMING APPARATUS, IMAGE FORMING METHOD, CURED PRODUCT, AND DECORATED PRODUCT” (priority 2019, published 2021).

What was measured:
Female mice = assay: Skin sensitization test by local lymph node assay (LLNA) method, SI value of materials; format: in vivo; details: for SI (stimulation index, LLNA): test substance 50.0 w/v % in acetone:olive oil 4:1, 25 microliters per auricle, once a day for three days, BrdU intake by ELISA
Excerpt: The present disclosure can provide an active-energy-ray-curable aqueous composition excellent in scratch resistance and storage stability and safe in skin sensitizing potential. Safety in skin sensitizing potential means that a SI value, which is a degree of sensitizing potential, is 3 or lower in a skin sensitization test by the LLNA method.
The “LLNA method” mentioned above is a skin sensitization test stipulated in OECD (Organisation for Economic Co-operation and Development) Test Guidelines. As described in literatures (e.g., “Functional Material”, September 2005 issue, Vol. 25, No. 9, p. 55), LLNA method judges that a stimulation index (SI value) of 3 or lower as a degree of skin sensitizing potential is non-problematic in terms of skin sensitizing potential.
The SI value was measured in the manner described below by a skin sensitization test according to a local lymph node assay (LLNA) method.
As the positive control substance, α-hexyl cinnamaldehyde (HCA, obtained from Wako Pure Chemical Industries, Ltd.) was used.
As the medium, a mixture liquid containing acetone (obtained from Wako Pure Chemical Industries, Ltd.) and olive oil (obtained from Fudimi Pharmaceutical Co., Ltd.) in a volume ratio of 4:1 (acetone:olive oil) was used.
Female mice were acclimated to the test substance, the positive control, and the medium control for 8 days including 6-day quarantine. No abnormalities were found in all of the animals during the quarantine/acclimation period.
Based on the body weights measured 2 days before the initiation of sensitization, the animals were separated into […] (4 mice/group) by the body weight stratified random sampling method in a manner that the body weight of each individual was within ±20% of the average body weight of all individuals. Each of the animals was 8 weeks old to 9 weeks old at the time of the initiation of sensitization.
The test substance was weighed out in a volumetric flask, and the volume of the test substance was adjusted to 1 mL with addition of the medium. The prepared liquid was poured into a light-blocked airtight container (formed of glass).
HCA was accurately weighed out in an amount of about 0.25 g, and adjusted to 1 mL with addition of the medium, to prepare a 25.0 w/v % liquid. The prepared liquid was poured into a light-blocked airtight container (formed of glass).
5-Bromo-2′-deoxyuridine (BrdU, obtained from Nacalai Tesque, Inc.) (200 mg) was accurately weighed out in a volumetric flask, and dissolved in saline (obtained from Otsuka Pharmaceutical Co., Ltd.) added in the flask by ultrasonic irradiation. Subsequently, the resultant was adjusted to a volume of 20 mL, to prepare a 10 mg/mL liquid (BrdU preparation liquid). The prepared liquid was sterilized by filtration through a sterilized filtration filter and poured into a sterilized container.
The preparation liquids of each test substance and the positive control substance, and the medium were each applied to both auricles of the animals by 25 microliters each. A micropipetter was used for the application. This treatment was performed once a day for three consecutive days.
About 48 hours after the final sensitization, the BrdU preparation liquid was intraperitoneally administered once by 0.5 mL per animal.
About 24 hours after the BrdU administration, the animals were subjected to euthanasia, and their auricular lymph nodes were removed. Surrounding tissues of the auricular lymph nodes were removed, and the auricular lymph nodes on both sides were collectively weighted. The average and the standard error of the weights of the auricular lymph nodes were calculated per group. After the mass measurement, the auricular lymph nodes were cryopreserved per individual in a biomedical freezer set to −20 degrees C.
After the auricular lymph nodes were returned to room temperature, the auricular lymph nodes were ground with addition of saline and suspended in the saline. […]

[1] = Oral toxicity according to OECD test guideline TG423; format: in vivo
Protocol: (§1) As a safety test, AMES test was performed according to OECD test guideline TG471 (±S9 mix), and the result was negative. Oral toxicity was tested according to OECD test guideline TG423. […] Skin stimulation was tested according to OECD test guideline TG404, and the result was PII=0.5. Skin sensitizing potential was tested according to OECD test guideline TG442B.

[2] = format: in vivo; details: OECD TG404
Protocol: as §1

[3] = format: cell-based; details: OECD TG471, ±S9 mix
Protocol: as §1

| Structure (SMILES) | SI (stimulation index, LLNA) (Female mice) | also measured |
| --- | --- | --- |
| C=C(C)C(=O)OCCOCCOC(=O)C(=C)C [Example B1-1] | Shin-Nakamura Chemical Co., Ltd., “2G”, SI = 1.05 |  |
| C=CC(=O)N(C)CC(=O)OC [Example A1-1, N-acryloyl-N-methylglycinemethyl ester] | (see Synthesis example 1) SI = 1.00 | SI value (skin sensitizing potential) (Female mice; OECD test guideline TG442B): 1.00; Fatal cases in oral toxicity test ([1]; OECD TG423): none of six cases was a fatal case; LD50 ([1]; in vivo, 2000 mg/kg, OECD TG423, oral): ≥ 2000 mg/kg; PII (skin stimulation) [2]: 0.5; AMES test result [3]: negative |
| C=CC(=O)NCCNC(=O)C=C [Example B2-6] | Tokyo Chemical Industry Co., Ltd., (product No. E1086), SI = 1.23 |  |
| C=CC(=O)N(C)CCCCCCN(C)C(=O)C=C [Example B2-4] | (see Synthesis example 12) SI = 1.58 |  |
| C=CC(=O)NCCCOCCOCCOCCCNC(=O)C=C [Example B2-10] | FUJIFILM Corporation, FOM-03008, SI = 1.24 |  |
| C=CC(=O)NCCN(CCNC(=O)C=C)C(=O)C=C [Example B2-9] | FUJIFILM Corporation, FOM-03007, SI = 1.44 |  |
| C=CC(=O)NC(O)C(O)NC(=O)C=C (stereo not drawn) [Example B2-7] | Tokyo Chemical Industry Co., Ltd., (product No. D2864), SI = 1.01 |  |
| C=CC(=O)N(C)C(C)C(=O)OC (stereo not drawn) [Example A1-4, N-acryloyl-N-methylalaninemethyl ester] | (see Synthesis example 4) SI = 1.12 |  |
| C=CC(=O)N(C)CCOC(C)=O [Example A1-8, N-(2-Acetyloxyethyl)-N-methyl acrylamide] | (see Synthesis example 13) SI = 1.10 |  |
| C=CC(=O)N(C)CC(=O)OCC [Example A1-2, N-acryloyl-N-methylglycineethyl ester] | (see Synthesis example 2) SI = 1.02 |  |
| C=CC(=O)N(CC)CCN(CC)C(=O)C=C [Example B2-2] | (see Synthesis example 10) SI = 1.33 |  |
| C=CC(=O)NCNC(=O)C=C [Example B2-5] | Tokyo Chemical Industry Co., Ltd., (product No. M2877), SI = 1.08 |  |
| C=CC(=O)NCCN(CCN(CCNC(=O)C=C)C(=O)C=C)C(=O)C=C [Example B2-11] | FUJIFILM Corporation, FOM-03009, SI = 1.52 |  |
| C=C(C)C(=O)OCCO [Example A2-1, 2-hydroxyethyl methacrylate, reference compound] | Tokyo Chemical Industry Co., Ltd., “2-hydroxyethyl methacrylate” SI = 1.26 |  |
| C=C(C)C(=O)OCC(COC(=O)C(=C)C)OC(C)=O [Example B1-6, 2-acetyl-1,3-glycerol dimethacrylate] | (see Synthesis example 8) SI = 1.40 |  |
| C=CC(=O)N(C)CCN(C)C(=O)C=C [Example B2-1] | (see Synthesis example 9) SI = 1.20 |  |
| C=CC(=O)OC1CC2CCC1(C)C2(C)C (stereo not drawn) [Example A2-2, Isobornyl acrylate, reference compound] | Osaka Organic Chemical Industry Ltd., “Isobornyl acrylate”, SI = 8.30 |  |
| C=C(C)C(=O)OCC(CC)(COC(=O)C(=C)C)COC(=O)C(=C)C [Example B1-3] | Shin-Nakamura Chemical Co., Ltd., “TMPT”, SI = 1.03 |  |
| C=CC(=O)N1CCC(C(=O)OCC)CC1 [Example A1-7, ethyl N-acryloylpiperidine-4-carboxylate] | (see Synthesis example 7) SI = 1.70 |  |
